Reference: paper PMC7615677 (Science translational medicine, 2023)
Values joined by “and” are separate entries in the source; they are usually repeats but may differ in a detail not shown here. Equal values may be shown once.

Assays:
L. infantum = test: Promastigote back-transformation assay on organs of treated hamsters; type: in vivo, golden hamsters
Excerpt: Female golden hamsters (5 per treatment group) were infected through intracardiac administration of 2x10^7 L. infantum amastigotes obtained from the spleen of a heavily infected donor hamster. […] After 5-day treatment period, followed by a 10-day wash out period, animals were sacrificed, and parasites burden assessed in the three target organs (liver, spleen, and bone-marrow). For this assessment, organs of individual animals were weighed, except for bone-marrow thus only providing a semi-quantitative evaluation only. Impression smears were Giemsa-stained for microscopic evaluation of amastigote burden, expressed as LDU (= mean number of amastigotes/cell × organ weight in mg) and the results were expressed as a percentage reduction compared to the burdens in the control group (vehicle as placebo). For evaluating the presence of viable residual burden after treatment, a promastigote back-transformation assay was conducted. This consisted of the incubation at ambient temperature of aseptically collected pieces of spleen or liver tissue in 1 mL of promastigote back-transformation medium in 24-well plates. For the bone-marrow, resected femurs were flushed with 1 mL medium. The medium consists of HOMEM pH 6.0 prepared as described elsewhere ([5]) with 10% fetal bovine serum (Gibco), 2.5% penicillin/streptomycin and 1% gentamicin (Merck). A qualitative assessment of the presence of promastigotes was made after 3 and 5 days of incubation and a score was attributed (+, ++ or +++) based on parasite density in the positive wells.
Supplementary Materials and methods
Promastigote transformation assay
For evaluating the presence of viable residual burdens after treatment, a promastigote back-transformation assay is conducted. This test consists of the incubation at ambient temperature of aseptically collected pieces of spleen or liver tissue in 1 mL of promastigote back-transformation medium in 24-well plates. For the bone-marrow, resected femurs are flushed with 1 mL medium. The medium consists of HOMEM pH 6.0 prepared as described elsewhere (1) with 10% fetal bovine serum (Gibco) and 2.5% penicillin/streptomycin and 1% gentamicin (Merck). A qualitative assessment of the presence of promastigotes is made after 3 and 5 days of incubation and a score is attributed (+, ++ or +++) based on parasite density in the positive […]
Supplementary Information on Tables
L. infantum MHOM/FR/96/LEM3323 Cl4 was originally obtained from a French HIV-positive patient (Languedoc area in Southern France) and provided by Dr. Laurence Lachaud of the Centre National de Référence des Leishmanioses (CNRL), Montpellier, France. The miltefosine and paromomycin resistant lines (LEM3323 Cl4 MIL-R and PMM-R) were obtained by successive in vitro selection cycles on intracellular amastigotes (2, 3)

Leishmania = test: Activity of synthesized metabolites against Leishmania; type: cell-based
[1] = system: L. donovani intracellular amastigote stage; design: method as in PMID 25740547; details: intracellular amastigote stage of L. donovani; cited from earlier work
T. cruzi = system: T. cruzi; design: method as in PMID 25740547; details: cited from earlier work
[2] = 40 mg/kg qd, 5 days, individual animals 1-10

Structure (SMILES): CCCCCCCCCCCCCCCCOP(=O)([O-])OCC[N+](C)(C)C [miltefosine, reference compound]
- emergence of viable promastigotes from recovered organs, in words (L. infantum; 40 mg/kg): more than half of those following miltefosine administration at 40 mg/kg were positive
- parasite score, Bone-marrow (L. infantum; [2]): ++ (4×) and + (4×) and - (2×)
- parasite score, Liver (L. infantum; [2]): + (3×) and - (7×)
- parasite score, Spleen (L. infantum; [2]): + (5×) and ++ (4×) and -

Structure (SMILES): Cc1[nH]c2nc(N)nc(C)c2c1-c1ccc(C#N)c(O)c1O [DNDI0003578765]
- activity against Leishmania, in words (Leishmania): inactive

Structure (SMILES): Cc1nc(N)nc2[nH]c(CO)c(-c3ccc(C#N)c4c3OCO4)c12 [DNDI0003671146]
- activity against Leishmania, in words (Leishmania): inactive

Structure (SMILES): COc1ccccc1-c1c(C)[nH]c2nc(N)nc(C)c12 [TCMDC-143610]
- EC50 [1]: 15.8 µM
- EC50 (T. cruzi): 0.13 µM
